Results: patent publication US20180296537A1, “METHODS AND COMPOSITIONS FOR DIAGNOSING, TREATING, AND MONITORING TREATMENT OF SHANK3 DEFICIENCY ASSOCIATED DISORDERS” (Novartis AG, priority 2015, published 2018)

Key:
Akt [1] = test: Western blot of Akt phosphorylation in rat primary cortical neurons (Shank3 knock down vs control); format: cell-based; details: for phosphorylation of Akt T308: 10 μM TG003, 60 minutes, DIV 16
From the text: E18 primary rat cortical neurons were dissected, cultured and infected 6 days after plating (DIV6) with indicated lentiviruses at MOI 10, as previously described (Proenca et al., 2013). Lentiviruses were produced by calcium phosphate transfection of HEK293T cells with packaging plasmids (Life Technologies) and transfer plasmid in 10 cm dishes. Cells were transferred to fresh medium 6 hrs. post-transfection. Four days post-transfection, the cell medium was collected and pooled from several dishes, cleared of cellular debris by 0.45 μm filtration, and concentrated 100× by centrifugation at 19,000 g for 90 min in a Beckman Ultracentrifuge using a SW28/SW32 rotor. Pellets were suspended in PBS/0.5% BSA and viral titer was determined by ELISA quantification of viral p24 antigen (Zeptometrix Corp, USA). For shRNA plasmid generation, oligonucleotides were annealed and ligated into lentiviral transfer plasmid pLKO.1-GFP vector at the AgeI/EcoRI sites. The target sequences of shRNAs that target rat and mouse Shank3 (5′-3′) are: […] […] (SEQ ID NO: 2), and […] (SEQ ID NO: 3). The latter was previously reported (Verpelli et al., 2011). A luciferase-targeting sequence was used as an shRNA control: […] (SEQ ID NO: 4).
For immunoprecipitation (IP) of HA-tagged Akt, neurons were lysed in IP buffer (20 mM Tris-HCl pH 7.4, 3 mM EDTA, 3 mM EGTA, 150 mM NaCl, 0.5% NP-40, and protease/phosphatase inhibitor cocktails (Roche)). Lysates were cleared by centrifugation at 13,000 rpm for 10 min and lysates normalized for protein abundance were immunoprecipitated with rabbit HA-tag antibody for 1 h at 4° C. Immuno-complexes were then captured by incubation for an additional 1 hr with Protein A agarose beads (Roche). Beads were washed three times with IP buffer and bound proteins were eluted with 2×SDS-PAGE sample buffer, then boiled for 5 min. For IP and analysis of ubiquitinated Myc-Clk2, neurons were lysed in Ubiquitin IP buffer (20 mM Tris-HCl pH 7.4, 3 mM EDTA, 3 mM EGTA, 150 mM NaCl, 1% Triton X-100, protease/phosphatase inhibitor cocktails (Roche), 5 mM N-ethylmaleimide, and 3 mM iodoacetamide) containing 1% SDS. Lysates were boiled for 20 min to denature proteins and then centrifuged for 10 min at 13,000 rpm. Lysates were subsequently diluted to 0.1% SDS with Ubiquitin IP buffer and immunoprecipitated with Myc antibody for 1 h. Complexes were then captured by addition of Protein G agarose (Roche) and additional 1 h incubation. Beads were washed 3× and eluted with 2×SDS-PAGE sample buffer, then boiled for 5 min. Samples prepared for SDS-PAGE were then resolved on 4-12% Novex gels (Life Technologies), transferred to PVDF membranes, blocked in 5% low-fat milk in TBS/0.1% Tween-20, and incubated overnight with primary antibodies. After washing and 1 h incubation with secondary antibodies, proteins were visualized by Chemiluminescent detection (Amersham-GE Healthcare Life Sciences).
To determine whether Shank3 deficiency impacts the PI3K-Akt-mTOR signaling pathway (FIG. 1A, gray highlight), lentiviral-mediated delivery of shRNAs was used to knock-down Shank3 in rat primary cortical neuron cultures. Cultured rat primary cortical neurons were transduced with lentiviruses encoding control shRNA or Shank3-shRNA at six days in vitro (DIV 6) and treated with BDNF (50 ng/ml) for 15 or 30 min at 14-16 days in vitro (DIV 14-16). Cell lysates were prepared in RIPA buffer prior to resolution by SDS-PAGE and Western blotting.
Cortical neurons, transduced with shRNA-expressing lentiviruses on DIV 6, were treated with 50 ng/ml BDNF or okadaic acid (100 nM) on DIV 16 and cell lysates were resolved by SDS-PAGE, followed by Western blotting.

Akt [2] = test: In vivo Akt phosphorylation in Shank3^ΔC/ΔC mice; design: species or system mouse; details: 30 mg/kg TG003 intraperitoneal
From the text: To determine whether the above findings extend to autism spectrum disorder (ASD)-like behaviors, a Shank3-deficient mouse model was generated by ablation of Shank3 exon 21 (FIGS. 8A and 8B) as previously described (Kouser et al., Journal of Neuroscience 33, 18448-18468, 2013; Duffney et al., Cell reports 11, 1400-1413, 2015). To generate Shank3 exon 21-deleted mice, the exon 21 genomic region of Shank3 (2464 bp in size) was replaced by homologous recombination with a loxP-TK_Neo-loxP cassette. The Neo cassette was flanked by a 3 kb 5′ homology arm and a 1.6 kb 3′ homology arm. Linearized targeting vector DNA was electroporated into C57BL6/J ES cells, and G418 resistant ES clones were first screened by nested PCR, and then subjected to Southern blot analysis. For Southern analysis, genomic DNA was digested with restriction enzyme(s), and hybridized with probes positioned outside the 5′ and 3′ homologous regions. Targeted ES clones were used for blastocyst injection, and chimeric males were mated with transgenic Cre-expressing C57B1/6 mice females to remove the neomycin resistance cassette. Animals without the neo cassette were used as F1 mice to establish the Shank3 exon 21-deleted (Shank3^ΔC/ΔC) colony.
The major Shank3 isoforms were absent in the homozygous mice (Shank3^ΔC/ΔC), while faster-migrating, truncated fragments were detected (FIG. 8C).

Shank3^ΔC/ΔC mice [3] = test: Spontaneous self-grooming; format: in vivo, mouse; details: 10 minute interval; TG003-treated Shank3^ΔC/ΔC mice
Procedure: To monitor spontaneous self-grooming, mice were placed in a clean cage (identical to the home cage), with minimal bedding to discourage digging, which was then placed in the sound-proof box for video monitoring. Animals were habituated in the new cage for 10 minutes before self-grooming was monitored during another 10 minutes. Cumulative grooming time was reported for this second 10 minute period.

Shank3^ΔC/ΔC mice [4] = test: Marble burying (avoidance behavior); format: in vivo, mouse; details: 30 minutes, 20 marbles; TG003 treatment
Procedure: To assess avoidance behavior by marble burying, 20 black marbles were evenly distributed in rows in a novel home cage on top of 5 cm of fresh bedding and mice were left undisturbed for 30 minutes in the cage. The number of marbles to at least ⅔ depth were then recorded.

Compound | Akt phosphorylation (Akt [1]; Shank3 knock down primary neurons, SC79 treatment) | phosphorylation of Akt T308 (Akt [1]; Shank3 knock down neurons) | phosphorylation of Akt T308 (Akt [1]; control neurons) | Akt phosphorylation in vivo (Akt [2]) | self-grooming (Shank3^ΔC/ΔC mice [3]) | avoidance behavior, marble burying (Shank3^ΔC/ΔC mice [4])
CCOC(=O)C1=C(N)Oc2ccc(Cl)cc2C1C(C#N)C(=O)OCC (stereo not drawn) [SC79] | restored Akt and rpS6 phosphorylation |  |  |  |  | 
CCN1/C(=C/C(C)=O)Sc2ccc(OC)cc21 [TG003, (Z)-1-(3-ethyl-5-methoxy-2,3-dihydrobenzothiazol-2-ylidene)propan-2-one] |  | restored to control levels in Shank3 knock down neurons | refractory to TG003 | increases Akt phosphorylation | significantly decreased self-grooming although not to wild type frequency | refractory to treatment with TG003
